How the values were obtained:
barnyard grass [1] = assay: Test Example 3: herbicidal effect by foliage application, Wagner pot (Table 18, symbol H); type: in vivo, barnyard grass (Echinochloa crus-galli)
Summary of the method: (§1)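 Plants were sown in alluvial soil held under 0.1–0.5 cm standing water and grown 14 days in a greenhouse at 25–30 °C. An emulsifiable formulation, water-diluted to the set dose, was then sprayed onto the foliage, and effects were scored three weeks later using previously defined criteria.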

Chinese sprangletop = assay: Test Example 3: herbicidal effect by foliage application, Wagner pot (Table 18, symbol D); type: in vivo, chinese sprangletop (Leptochloa chinensis)
Summary of the method: as §1

late watergrass = assay: Test Example 1: herbicidal activity, application before weed generation under submerged conditions (Table 16, symbol A); type: in vivo, late watergrass (Echinochloa oryzicola)
Summary of the method: (§2)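 Emulsion formulation, water-diluted to set dose, was put onto the flooded surface (4 cm depth, alluvial soil) the same day weeds were sown and 2.5-leaf rice transplanted. After 3 weeks at 25-30 °C under glass, each species was rated 0 (≤5% kill) to 5 (≥90% kill).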

southern crabgrass = assay: Test Example 4: herbicidal effect by soil treatment (Table 19, symbol F); type: in vivo, southern crabgrass (Digitaria ciliaris)
Summary of the method: (§3)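 Seeds were sown in sterilized diluvial soil and covered with about 1.5 cm of soil. An emulsion formulation diluted with water to a predetermined herbicide amount was sprayed evenly onto the soil surface. Plants grew in a greenhouse at 25° C. to 30° C., and the effect was scored three weeks after application using criteria from an earlier test.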

Japanese bulrush [2] = assay: Test Example 2: herbicidal activity, application during weed generation under submerged conditions (Table 17, symbol B); type: in vivo, Japanese bulrush (Schoenoplectus juncoides); conditions: application during weed generation, submerged conditions
Summary of the method: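 Mixed weed seedlings in alluvial soil under a 4 cm water layer, greenhouse-grown at 25–30° C. Compound given as a diluted emulsion into the floodwater at the 1–2 leaf stage; response graded after three weeks.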

lambsquarters [3] = assay: Test Example 5: herbicidal effect by foliage application, plastic box (Table 20, symbol O); type: in vivo, lambsquarters (Chenopodium album); conditions: foliage application, 3 weeks after application
Summary of the method: (§4)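 Plants sown in sterilized diluvial soil and grown 14 days in a greenhouse at 25° C to 30° C, then sprayed on the foliage with the compound's emulsion diluted in water to a predetermined herbicide amount. Injury to weeds and crops scored three weeks after application on a visual rating scale.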

lambsquarters [4] = assay: Test Example 4: herbicidal effect by soil treatment (Table 19, symbol O); type: in vivo, lambsquarters (Chenopodium album)
Summary of the method: as §3

barnyard grass [5] = assay: Test Example 4: herbicidal effect by soil treatment (Table 19, symbol H); type: in vivo, barnyard grass (Echinochloa crus-galli)
Summary of the method: as §3

Japanese bulrush [6] = assay: Test Example 1: herbicidal activity, application before weed generation under submerged conditions (Table 16, symbol B); type: in vivo, Japanese bulrush (Schoenoplectus juncoides)
Summary of the method: as §2

blackgrass = assay: Test Example 5: herbicidal effect by foliage application, plastic box (Table 20, symbol J); type: in vivo, blackgrass (Alopecurus myosuroides); conditions: foliage application, 3 weeks after application
Summary of the method: as §4

persian speedwell = assay: Test Example 4: herbicidal effect by soil treatment (Table 19, symbol R); type: in vivo, Persian speedwell (Veronica persica)
Summary of the method: as §3

windgrass [7] = assay: Test Example 5: herbicidal effect by foliage application, plastic box (Table 20, symbol L); type: in vivo, windgrass (Apera spica-venti); conditions: foliage application, 3 weeks after application
Summary of the method: as §4

windgrass [8] = assay: Test Example 4: herbicidal effect by soil treatment (Table 19, symbol L); type: in vivo, windgrass (Apera spica-venti)
Summary of the method: as §3

barnyard grass [9] = assay: Test Example 5: herbicidal effect by foliage application, plastic box (Table 20, symbol H); type: in vivo, barnyard grass (Echinochloa crus-galli); conditions: foliage application, 3 weeks after application
Summary of the method: as §4

Compound	herbicidal effect on H (barnyard grass), rating 0-5 (barnyard grass [1]; 320 g/ha)	herbicidal effect on D (Chinese sprangletop), rating 0-5 (Chinese sprangletop; 320 g/ha)	Herbicidal effect on A: late watergrass (grade 0-5) (late watergrass; 320 g/ha applied herbicide)	herbicidal effect rating, F: southern crabgrass (southern crabgrass; 320 g/ha)	herbicidal effect rating, B: Japanese bulrush (Japanese bulrush [2]; AAH 320 g/ha)	effect on lambsquarters (O) (lambsquarters [3]; 320 g/ha)	herbicidal effect rating, O: lambsquarters (lambsquarters [4]; 320 g/ha)	herbicidal effect rating, H: barnyard grass (barnyard grass [5]; 320 g/ha)	Herbicidal effect on B: Japanese bulrush (grade 0-5) (Japanese bulrush [6]; 320 g/ha applied herbicide)	effect on blackgrass (J) (blackgrass; 320 g/ha)	herbicidal effect rating, R: persian speedwell (persian speedwell; 320 g/ha)	effect on windgrass (L) (windgrass [7]; 320 g/ha)	herbicidal effect rating, L: windgrass (windgrass [8]; 320 g/ha)	effect on barnyard grass (H) (barnyard grass [9]; 320 g/ha)	further results
Cc1ccc(-c2sc3ccc(F)cc3c2-c2c(O)c(C)nn(C)c2=O)cc1 [2-012]	5 (Herbicidal rate of 90% or more (almost completely withered))	5 (Herbicidal rate of 90% or more (almost completely withered))	3 (Herbicidal rate of 40% or more and less than 70%)	5 (Herbicidal rate of 90% or more (almost completely withered))	3 (Herbicidal rate of 40% or more and less than 70%)	4 (Herbicidal rate of 70% or more and less than 90%)	5 (Herbicidal rate of 90% or more (almost completely withered))	5 (Herbicidal rate of 90% or more (almost completely withered))	0 (Herbicidal rate of 5% or less (almost no effect))	4 (Herbicidal rate of 70% or more and less than 90%)	5 (Herbicidal rate of 90% or more (almost completely withered))	4 (Herbicidal rate of 70% or more and less than 90%)	0 (Herbicidal rate of 5% or less (almost no effect))	4 (Herbicidal rate of 70% or more and less than 90%)	–
CCCC(=O)Oc1c(C)nn(C)c(=O)c1-c1c(-c2ccc(C)cc2)sc2ccc(F)cc12 [2-013]	5 (Herbicidal rate of 90% or more (almost completely withered))	5 (Herbicidal rate of 90% or more (almost completely withered))	3 (Herbicidal rate of 40% or more and less than 70%)	5 (Herbicidal rate of 90% or more (almost completely withered))	2 (Herbicidal rate of 20% or more and less than 40%)	4 (Herbicidal rate of 70% or more and less than 90%)	5 (Herbicidal rate of 90% or more (almost completely withered))	4 (Herbicidal rate of 70% or more and less than 90%)	2 (Herbicidal rate of 20% or more and less than 40%)	1 (Herbicidal rate of 5% or more and less than 20%)	4 (Herbicidal rate of 70% or more and less than 90%)	3 (Herbicidal rate of 40% or more and less than 70%)	0 (Herbicidal rate of 5% or less (almost no effect))	5 (Herbicidal rate of 90% or more (almost completely withered))	–
COc1ccc(-c2sc3ccc(F)cc3c2-c2c(O)c(C)nn(C)c2=O)cc1 [2-026]	5 (Herbicidal rate of 90% or more (almost completely withered))	4 (Herbicidal rate of 70% or more and less than 90%)	3 (Herbicidal rate of 40% or more and less than 70%)	4 (Herbicidal rate of 70% or more and less than 90%)	4 (Herbicidal rate of 70% or more and less than 90%)	4 (Herbicidal rate of 70% or more and less than 90%)	5 (Herbicidal rate of 90% or more (almost completely withered))	4 (Herbicidal rate of 70% or more and less than 90%)	4 (Herbicidal rate of 70% or more and less than 90%)	4 (Herbicidal rate of 70% or more and less than 90%)	5 (Herbicidal rate of 90% or more (almost completely withered))	4 (Herbicidal rate of 70% or more and less than 90%)	1 (Herbicidal rate of 5% or more and less than 20%)	5 (Herbicidal rate of 90% or more (almost completely withered))	–
CCCC(=O)Oc1c(C)nn(C)c(=O)c1-c1c(-c2ccccc2OCC)sc2ccc(F)cc12 [2-029]	–	–	–	–	–	–	–	–	–	–	–	–	–	–	herbicidal effect on H (barnyard grass), rating 0-5 (barnyard grass [1]; 266 g/ha): 5 (Herbicidal rate of 90% or more (almost completely withered)); herbicidal effect on D (Chinese sprangletop), rating 0-5 (Chinese sprangletop; 266 g/ha): 3 (Herbicidal rate of 40% or more and less than 70%); Herbicidal effect on A: late watergrass (grade 0-5) (late watergrass; 266 g/ha applied herbicide): 2 (Herbicidal rate of 20% or more and less than 40%); herbicidal effect rating, F: southern crabgrass (southern crabgrass; 266 g/ha): 3 (Herbicidal rate of 40% or more and less than 70%); herbicidal effect rating, B: Japanese bulrush (Japanese bulrush [2]; AAH 266 g/ha): 2 (Herbicidal rate of 20% or more and less than 40%); effect on lambsquarters (O) (lambsquarters [3]; 266 g/ha): 3 (Herbicidal rate of 40% or more and less than 70%); herbicidal effect rating, O: lambsquarters (lambsquarters [4]; 266 g/ha): 4 (Herbicidal rate of 70% or more and less than 90%); herbicidal effect rating, H: barnyard grass (barnyard grass [5]; 266 g/ha): 3 (Herbicidal rate of 40% or more and less than 70%); Herbicidal effect on B: Japanese bulrush (grade 0-5) (Japanese bulrush [6]; 266 g/ha applied herbicide): 0 (Herbicidal rate of 5% or less (almost no effect)); effect on blackgrass (J) (blackgrass; 266 g/ha): 1 (Herbicidal rate of 5% or more and less than 20%); herbicidal effect rating, R: persian speedwell (persian speedwell; 266 g/ha): 3 (Herbicidal rate of 40% or more and less than 70%); effect on windgrass (L) (windgrass [7]; 266 g/ha): 1 (Herbicidal rate of 5% or more and less than 20%); herbicidal effect rating, L: windgrass (windgrass [8]; 266 g/ha): 0 (Herbicidal rate of 5% or less (almost no effect)); effect on barnyard grass (H) (barnyard grass [9]; 266 g/ha): 5 (Herbicidal rate of 90% or more (almost completely withered))
CCCOc1ccc(-c2sc3ccc(F)cc3c2-c2c(O)c(C)nn(C)c2=O)cc1 [2-032]	5 (Herbicidal rate of 90% or more (almost completely withered))	3 (Herbicidal rate of 40% or more and less than 70%)	4 (Herbicidal rate of 70% or more and less than 90%)	2 (Herbicidal rate of 20% or more and less than 40%)	4 (Herbicidal rate of 70% or more and less than 90%)	5 (Herbicidal rate of 90% or more (almost completely withered))	5 (Herbicidal rate of 90% or more (almost completely withered))	2 (Herbicidal rate of 20% or more and less than 40%)	4 (Herbicidal rate of 70% or more and less than 90%)	5 (Herbicidal rate of 90% or more (almost completely withered))	5 (Herbicidal rate of 90% or more (almost completely withered))	4 (Herbicidal rate of 70% or more and less than 90%)	0 (Herbicidal rate of 5% or less (almost no effect))	5 (Herbicidal rate of 90% or more (almost completely withered))	–
